Data as given in the supplement of paper PMC10307832.

Experiments:
Experiment in all cases: relative viability (nuclei count vs DMSO), 5 days (fraction); higher = more cells survive
Sunitinib + Linsitinib = compound: CCN(CC)CCNC(=O)c1c(C)[nH]c(/C=C2\C(=O)Nc3ccc(F)cc32)c1C [Sunitinib] + C[C@]1(O)C[C@@H](c2nc(-c3ccc4ccc(-c5ccccc5)nc4c3)c3c(N)nccn32)C1 [Linsitinib] (partner 1 µM)
In short: (§1)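 Lung cancer cell lines, seeded in 1536-well plates, were treated the following day by pin tool with a single drug or with five library-drug doses (not always all listed) in √10 steps on top of a fixed anchor-drug dose. Cells were fixed and nuclei stained in one step after 5 days, and nuclei were counted. Relative viability is the nuclei count for treated wells divided by that for vehicle wells, reported as medians of duplicate plates.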

Sunitinib + OSI-027 = compound: CCN(CC)CCNC(=O)c1c(C)[nH]c(/C=C2\C(=O)Nc3ccc(F)cc32)c1C [Sunitinib] + COc1cccc2cc(-c3nc([C@H]4CC[C@H](C(=O)O)CC4)n4ncnc(N)c34)[nH]c12 [OSI-027] (partner 0.5 µM)
In short: as §1

Sunitinib + Crizotinib = compound: CCN(CC)CCNC(=O)c1c(C)[nH]c(/C=C2\C(=O)Nc3ccc(F)cc32)c1C [Sunitinib] + C[C@@H](Oc1cc(-c2cnn(C3CCNCC3)c2)cnc1N)c1c(Cl)ccc(F)c1Cl [Crizotinib] (partner 1 µM)
In short: as §1

Sunitinib + Tozasertib = compound: CCN(CC)CCNC(=O)c1c(C)[nH]c(/C=C2\C(=O)Nc3ccc(F)cc32)c1C [Sunitinib] + Cc1cc(Nc2cc(N3CCN(C)CC3)nc(Sc3ccc(NC(=O)C4CC4)cc3)n2)n[nH]1 [Tozasertib] (partner 0.1 µM)
In short: as §1

Row | Cell Line | relative viability (Sunitinib + Linsitinib; first compound 0.02 µM) | relative viability (Sunitinib + Linsitinib; first compound 0.06325 µM) | relative viability (Sunitinib + Linsitinib; first compound 0.2 µM) | relative viability (Sunitinib + Linsitinib; first compound 0.6325 µM) | relative viability (Sunitinib + Linsitinib; first compound 2 µM) | relative viability (Sunitinib + OSI-027; first compound 0.02 µM) | relative viability (Sunitinib + OSI-027; first compound 0.06325 µM) | relative viability (Sunitinib + OSI-027; first compound 0.2 µM) | relative viability (Sunitinib + OSI-027; first compound 0.6325 µM) | relative viability (Sunitinib + OSI-027; first compound 2 µM) | relative viability (Sunitinib + Crizotinib; first compound 0.02 µM) | relative viability (Sunitinib + Crizotinib; first compound 0.06325 µM) | relative viability (Sunitinib + Crizotinib; first compound 0.2 µM) | relative viability (Sunitinib + Crizotinib; first compound 0.6325 µM) | relative viability (Sunitinib + Crizotinib; first compound 2 µM) | relative viability (Sunitinib + Tozasertib; first compound 0.02 µM) | relative viability (Sunitinib + Tozasertib; first compound 0.06325 µM) | relative viability (Sunitinib + Tozasertib; first compound 0.2 µM) | relative viability (Sunitinib + Tozasertib; first compound 0.6325 µM) | relative viability (Sunitinib + Tozasertib; first compound 2 µM)
1 | UMC-11 | 0.958 | 0.958 | 1.08 | 1.01 | 0.914 | 0.401 | 0.526 | 0.54 | 0.494 | 0.462 | 0.578 | 0.569 | 0.571 | 0.692 | 0.556 | 0.206 | 0.207 | 0.198 | 0.199 | 0.197
2 | LK-2 | 0.504 | 0.516 | 0.658 | 0.712 | 0.637 | 0.175 | 0.257 | 0.189 | 0.2 | 0.194 | 0.203 | 0.265 | 0.203 | 0.23 | 0.231 | 0.177 | 0.196 | 0.167 | 0.167 | 0.188
3 | HCC-827 | 0.971 | 0.887 | 0.98 | 1 | 0.936 | 0.743 | 0.709 |  | 0.76 | 0.826 | 0.911 | 0.964 | 0.965 | 0.939 | 0.947 | 0.405 | 0.416 | 0.449 | 0.439 | 0.407
4 | NCI-H460 | 0.662 |  | 0.95 | 0.927 | 0.699 | 0.593 | 0.717 | 0.78 | 0.768 | 0.467 | 0.874 | 0.945 | 1.2 | 1.17 | 0.638 | 0.427 | 0.206 | 0.421 | 0.292 | 0.104
5 | NCI-H1915 | 1.08 | 1.15 | 1.14 | 1.09 | 1.11 | 0.605 | 0.645 | 0.71 | 0.612 | 0.618 |  | 0.911 | 0.998 | 0.911 | 0.966 | 0.415 | 0.418 | 0.46 | 0.453 | 0.465
6 | EPLC-272H | 1.27 | 1.1 | 1.15 | 1.09 | 0.93 | 0.336 | 0.318 | 0.302 | 0.29 | 0.291 | 0.906 | 0.736 | 0.959 |  | 0.706 | 0.382 | 0.333 | 0.285 | 0.196 | 0.318
7 | NCI-H1666 | 0.701 | 0.815 | 0.971 | 0.827 |  | 0.835 | 0.877 | 0.924 | 0.924 | 0.822 | 1.06 | 0.978 | 1.08 | 1.19 | 1.07 | 0.676 | 0.685 | 0.719 | 0.655 | 0.71
8 | NCI-H838 | 0.916 | 0.987 | 1.06 | 1.07 | 0.85 | 0.386 | 0.358 | 0.423 | 0.319 | 0.317 | 0.768 | 0.863 | 0.916 | 0.884 | 0.64 | 0.301 | 0.311 | 0.314 | 0.266 | 0.246
9 | LOU-NH91 |  | 0.983 | 0.959 | 0.95 | 0.87 | 0.778 | 0.74 | 0.772 | 0.73 | 0.742 | 0.733 | 0.732 | 0.789 | 0.71 | 0.746 | 0.666 | 0.732 | 0.673 | 0.753 | 0.738
10 | HARA | 0.948 | 0.978 | 1.14 | 0.956 | 0.858 | 0.447 | 0.566 | 0.655 | 0.489 | 0.399 | 1.02 | 1.11 | 1.41 | 1.19 |  | 0.105 | 0.148 | 0.216 | 0.076 | 0.0991
11 | NCI-H661 | 0.488 | 0.513 | 0.496 | 0.572 | 0.598 | 0.646 | 0.785 | 0.801 | 0.767 | 0.704 | 1.09 | 0.987 | 1 | 0.978 | 1.17 | 0.357 | 0.379 | 0.356 | 0.363 | 0.401
12 | LCLC-103H | 0.987 | 1.02 | 1.11 | 1.1 | 1.08 | 0.373 | 0.477 | 0.467 | 0.397 | 0.456 | 1.01 | 1.09 | 1.17 | 1.05 | 1.06 | 0.459 | 0.44 | 0.478 | 0.44 | 0.514
13 | ABC-1 | 1.03 | 0.766 | 0.855 | 0.923 | 0.718 | 0.43 | 0.604 | 0.494 | 0.685 | 0.504 | 1.08 | 1.12 | 1.03 | 1.03 | 0.739 | 0.187 | 0.189 | 0.172 | 0.18 | 0.154
14 | NCI-H596 | 1 | 1.02 | 1.21 | 1.14 | 0.911 | 0.731 | 0.799 | 0.787 | 0.699 | 0.552 | 0.935 | 0.957 | 1.01 |  | 0.81 | 1.01 | 0.944 | 0.985 | 0.912 | 0.705
15 | HCC-44 | 0.641 | 0.757 | 0.772 | 0.665 | 0.727 | 0.558 | 0.459 | 0.676 | 0.64 | 0.665 | 0.874 | 0.784 | 0.937 | 0.859 | 0.774 | 0.923 | 1.01 | 1.44 | 1.07 | 0.499
16 | NCI-H2023 | 0.709 | 0.594 | 0.754 | 0.788 | 0.582 | 0.341 | 0.437 | 0.399 | 0.398 | 0.289 | 0.628 | 0.67 | 0.792 | 0.654 | 0.667 | 0.304 | 0.301 | 0.382 | 0.239 | 0.181
